pIC50: −log10 of the molar value. Read-outs that look alike come from different tables or passages of the source.
Key:
[1] = tested on: MCF-7 cells (with PI3Kα E545K mutation); test: In vitro inhibition of MCF-7 cell proliferation (CellTiter-Lumi); assay type: cell-based; settings: Homo sapiens, MCF7, 144 h, numeric values, read-out: Inhibitory activity against MCF-7 cells (IC50)
Experimental: Biological Example 3. Assay for In Vitro Inhibition of MCF-7 Cell Proliferation by Compounds of the Present Disclosure
MCF-7 cells (with PI3Kα E545K mutation) were seeded into a 384-well plate (Fisher 142762) at 2000 cells per well. The next day, serially diluted compounds were added, and 144 h after the addition, CellTiter-Lumi (Beyotime C0068XL) was added to measure the ATP content in the cells. The growth of the cells was evaluated, and the IC50 for the inhibition of cell growth by the compounds was calculated.

[2] = tested on: HCC1954 cells (with PI3Kα H1047R mutation); test: In vitro inhibition of HCC1954 cell proliferation (CellTiter-Lumi); assay type: cell-based; settings: Homo sapiens, HCC1954, 144 h, read-out: Inhibitory activity against HCC1954 cells (IC50)
Experimental: Assay for In Vitro Inhibition of HCC1954 Cell Proliferation by Compounds of the Present Disclosure
The growth of the cells was evaluated, and the IC50 for the inhibition of cell growth by the compounds was calculated.

[3] = HCC1954 cells, 144 h, CellTiter-Lumi, numeric values

Compound	pIC50 [1]	pIC50 [2, 3]	pIC50 [2]
C=C(C)C(=O)Nc1ccc(N2CC(N3CCN(c4ccc5c(c4)-c4nc(N6C(=O)OC[C@H]6C(F)F)cn4CCO5)CC3)C2)cc1 [Compound 100]	7.66	7.18	
C/C=C/C(=O)Nc1ccc(N2CC(N3CCN(c4ccc5c(c4)-c4nc(N6C(=O)OC[C@H]6C(F)F)cn4CCO5)CC3)C2)cc1 [Compound 101]	7.42	7.08	
C=CC(=O)Nc1ccc(N2CC(N3CCN(c4cc5c(cc4F)OCCn4cc(N6C(=O)OC[C@H]6C(F)F)nc4-5)CC3)C2)cc1 [Compound 102]	7.64	6.63	
C=CC(=O)Nc1ccc(N2CC(N3CCC(c4ccc5c(c4)-c4nc(N6C(=O)OC[C@H]6C(F)F)cn4CCO5)CC3)C2)cc1 [Compound 104]	8.34	7.19	
C=CC(=O)N1CCC(N2CC(N3CCN(c4ccc5c(c4)-c4nc(N6C(=O)OC[C@H]6C(F)F)cn4CCO5)CC3)C2)CC1 [Compound 105]	7.64	6.21	
C=CC(=O)Nc1ccc(N2CC(N3CCC4(c5ccc6c(c5)-c5nc(N7C(=O)OC[C@H]7C(F)F)cn5CCO6)CC4C3)C2)cc1 (some centres unmarked) [Compound 107]	7.80		6.88
C=CC(=O)Nc1ccc(N2CC(N3CCN(c4ccc5c(c4)-c4nc(N6C(=O)OC[C@H]6C(F)F)cn4CCO5)CC3)C2)cc1F [Compound 124]	8.57	8.05	
C=CC(=O)Nc1ccc(N2CC(C3CCN(c4ccc5c(c4)-c4nc(N6C(=O)OC[C@H]6C(F)F)cn4CCO5)CC3)C2)cc1 [Compound 130]	7.85	7.15	
C=CC(=O)Nc1ccc(N2CC(N3CCN(c4ccc5c(c4)-c4nc(N6C(=O)OC[C@H]6C)cn4CCO5)CC3)C2)cc1 [Compound 131]	7.82	7.08	
CC#CC(=O)Nc1ccc(N2CC(N3CCN(c4ccc5c(c4)-c4nc(N6C(=O)OC[C@H]6C(F)F)cn4CCO5)CC3)C2)cc1 [Compound 132]	8.48	7.35	
CC(C)(C)C=C(C#N)C(=O)Nc1ccc(N2CC(N3CCN(c4ccc5c(c4)-c4nc(N6C(=O)OC[C@H]6C(F)F)cn4CCO5)CC3)C2)cc1 [Compound 136]	7.54	7.15	
CC(C)(C=C(C#N)C(=O)Nc1ccc(N2CC(N3CCN(c4ccc5c(c4)-c4nc(N6C(=O)OC[C@H]6C(F)F)cn4CCO5)CC3)C2)cc1)N1CCOCC1 [Compound 138]	7.46	6.96	
CC(C)C=C(C#N)C(=O)Nc1ccc(N2CC(N3CCN(c4ccc5c(c4)-c4nc(N6C(=O)OC[C@H]6C(F)F)cn4CCO5)CC3)C2)cc1 [Compound 144]	7.66	7.26	
C=CC(=O)N(C)c1ccc(N2CC(N3CCN(c4ccc5c(c4)-c4nc(N6C(=O)OC[C@H]6C(F)F)cn4CCO5)CC3)C2)cc1 [Compound 146]	8.18	7.12	
CC#CC(=O)Nc1ccc(N2CC(N3CCN(c4ccc5c(c4)-c4nc(N6C(=O)OC[C@H]6C(F)F)cn4CCO5)CC3)C2)c(F)c1 [Compound 149]	7.80	6.94	
CN(C)C(C)(C)C=C(C#N)C(=O)Nc1ccc(N2CC(N3CCN(c4ccc5c(c4)-c4nc(N6C(=O)OC[C@H]6C(F)F)cn4CCO5)CC3)C2)cc1 [Compound 150]	7.46	6.92	
C#CC(=O)Nc1ccc(N2CC(N3CCN(c4ccc5c(c4)-c4nc(N6C(=O)OC[C@H]6C(F)F)cn4CCO5)CC3)C2)cc1 [Compound 152]	8.01	7.31	
C=CC(=O)N1CCc2nc(N3CC(N4CCN(c5ccc6c(c5)-c5nc(N7C(=O)OC[C@H]7C(F)F)cn5CCO6)CC4)C3)sc2C1 [Compound 154]	8.31	7.27	
C=CC(=O)N1CCc2sc(N3CC(N4CCN(c5ccc6c(c5)-c5nc(N7C(=O)OC[C@H]7C(F)F)cn5CCO6)CC4)C3)nc2C1 [Compound 155]	8.29	7.36	
CN(C1CCC1)C(C)(C)C=C(C#N)C(=O)Nc1ccc(N2CC(N3CCN(c4ccc5c(c4)-c4nc(N6C(=O)OC[C@H]6C(F)F)cn4CCO5)CC3)C2)cc1 [Compound 156]	7.72	7.31	
CC(C)=CC(=O)CCCCC(=O)N1CC(N2CCN(c3ccc4c(c3)-c3nc(N5C(=O)OC[C@H]5C(F)F)cn3CCO4)CC2)C1 [Compound 157]	7.62	6.64	
CC(C)=CC(=O)CCCCC(=O)N1CCN(c2ccc3c(c2)-c2nc(N4C(=O)OC[C@H]4C(F)F)cn2CCO3)CC1 [Compound 158]	6.49	6.60	
C=CC(=O)Nc1ccc(C2CN(C3CCN(c4ccc5c(c4)-c4nc(N6C(=O)OC[C@H]6C(F)F)cn4CCO5)CC3)C2)cc1 [Compound 160]	8.46	7.33	

The next compounds have a higher pIC50 [1] than those just listed; values first:

pIC50 [1]	pIC50 [2, 3]	Compound	pIC50 [2]
8.70	7.64	C=CC(=O)Nc1ccc(N2CC(N3CC=C(c4ccc5c(c4)-c4nc(N6C(=O)OC[C@H]6C(F)F)cn4CCO5)CC3)C2)cc1 [Compound 103]	
9.85	8.22	C=CC(=O)Nc1ccc(N2CC(N3CCN(c4ccc5c(c4)-c4nc(N6C(=O)SC[C@H]6C(F)F)cn4CCO5)CC3)C2)cc1 [Compound 106]	
10.00	8.60	C=CC(=O)Nc1ccc(N2CC(N3CCN(c4ccc5c(c4)-c4nc(-c6nc(C)nn6C(C)C)cn4CCO5)CC3)C2)cc1 [Compound 111]	
9.70	8.52	C=CC(=O)Nc1ccc(N2CC(N3CCN(c4ccc5c(c4)-c4nc(N6C(=O)OC[C@H]6C(F)F)cn4CCO5)CC3)C2)cn1 [Compound 121]	
9.40	8.15	C=CC(=O)Nc1ccc(N2CC(N3CCN(c4ccc5c(c4)-c4nc(N6C(=O)OC[C@H]6C(F)F)cn4CCO5)CC3)C2)nc1 [Compound 122]	
9.05	8.28	C=CC(=O)Nc1ccc(N2CC(N3CCN(c4ccc5c(c4)-c4nc(N6C(=O)OC[C@H]6C(F)F)cn4CCO5)CC3)C2)c(F)c1 [Compound 123]	
9.52	8.16	C=CC(=O)Nc1ccc(N2CC(N3CCN(c4ccc5c(c4)-c4nc(N6C(=O)OC[C@H]6C(F)F)cn4CCO5)CC3)C2)c(C)c1 [Compound 129]	
9.40	8.37	C=CC(=O)Nc1cnc(N2CC(N3CCN(c4ccc5c(c4)-c4nc(N6C(=O)OC[C@H]6C(F)F)cn4CCO5)CC3)C2)nc1 [Compound 133]	
9.70	8.57	C=CC(=O)N1CCc2cc(N3CC(N4CCN(c5ccc6c(c5)-c5nc(N7C(=O)OC[C@H]7C(F)F)cn5CCO6)CC4)C3)ccc21 [Compound 134]	
8.82	7.80	C=CC(=O)Nc1cc(N2CC(N3CCN(c4ccc5c(c4)-c4nc(N6C(=O)OC[C@H]6C(F)F)cn4CCO5)CC3)C2)n(C)n1 [Compound 135]	
10.00	9.22	CC(C)(N)C=C(C#N)C(=O)Nc1ccc(N2CC(N3CCN(c4ccc5c(c4)-c4nc(N6C(=O)OC[C@H]6C(F)F)cn4CCO5)CC3)C2)cc1 [Compound 137]	
9.22	8.17	C=CC(=O)Nc1ccc(N2CC(N3CCN(c4ccc5c(c4)-c4nc(N6C(=O)OC[C@H]6C(F)F)cn4CCO5)CC3)C2)cc1C [Compound 139]	
9.52	8.22	C=CC(=O)Nc1cc(C)c(N2CC(N3CCN(c4ccc5c(c4)-c4nc(N6C(=O)OC[C@H]6C(F)F)cn4CCO5)CC3)C2)cn1 [Compound 140]	
9.22	8.17	CC(C)(C=C(C#N)C(=O)Nc1ccc(N2CC(N3CCN(c4ccc5c(c4)-c4nc(N6C(=O)OC[C@H]6C(F)F)cn4CCO5)CC3)C2)cc1)N1CC2(COC2)C1 [Compound 141]	
9.30	8.08	C=CC(=O)Nc1ccc(N2CC(N3CCN(c4ccc5c(c4)-c4nc(N6C(=O)OC[C@H]6C(F)F)cn4CCO5)CC3)C2)cc1C(F)(F)F [Compound 142]	
10.00	8.66	C=CC(=O)Nc1ccc(N2CC(N3CCN(c4ccc5c(c4)-c4nc(N6C(=O)OC[C@H]6C(F)F)cn4CCO5)CC3)C2)cc1C#N [Compound 143]	
10.00	9.22	CNC(C)(C)C=C(C#N)C(=O)Nc1ccc(N2CC(N3CCN(c4ccc5c(c4)-c4nc(N6C(=O)OC[C@H]6C(F)F)cn4CCO5)CC3)C2)cc1 [Compound 145]	
8.82	7.54	C=CC(=O)Nc1ccc(N2CC(N3CCN(c4ccc5c(c4)-c4nc(N6C(=O)OC[C@H]6C)cn4CCO5)CC3)C2)cn1 [Compound 147]	
9.70	8.00	CN(C)C/C=C/C(=O)Nc1ccc(N2CC(N3CCN(c4ccc5c(c4)-c4nc(N6C(=O)OC[C@H]6C(F)F)cn4CCO5)CC3)C2)cn1 [Compound 148]	
9.52	8.25	C=CC(=O)Nc1ccc(N2CC(N3CCN(c4ccc5c(c4)-c4nc(N6C(=O)OC[C@H]6C(F)F)cn4CCO5)CC3)C2)c(C)n1 [Compound 151]	
9.10	8.00	CN(C)CC#CC(=O)Nc1ccc(N2CC(N3CCN(c4ccc5c(c4)-c4nc(N6C(=O)OC[C@H]6C(F)F)cn4CCO5)CC3)C2)cc1 [Compound 153]	
8.74	7.55	C=CC(=O)N1CCCc2cc(N3CC(N4CCN(c5ccc6c(c5)-c5nc(N7C(=O)OC[C@H]7C(F)F)cn5CCO6)CC4)C3)ccc21 [Compound 159]	
9.30	8.54	C=CC(=O)Nc1ccc(N2CC(N3CCN(c4ccc5c(c4)-c4nc(N6C(=O)OC[C@H]6C(F)F)cn4CCO5)CC3)C2)nn1 [Compound 161]	
